By IC50 is commonly meant the midpoint of a concentration-inhibition curve.

Structures are written as SMILES.

In this test the target is T1, Jak3 enzyme (aa 811-1103) (Homo sapiens, UniProt P52333).
T1 construct: Jak3 enzyme (aa 811-1103); expressed in SF9 cells as a GST fusion; GST; made in house; host or cells: SF9 insect cells
T1 sequence (P52333 811-1103): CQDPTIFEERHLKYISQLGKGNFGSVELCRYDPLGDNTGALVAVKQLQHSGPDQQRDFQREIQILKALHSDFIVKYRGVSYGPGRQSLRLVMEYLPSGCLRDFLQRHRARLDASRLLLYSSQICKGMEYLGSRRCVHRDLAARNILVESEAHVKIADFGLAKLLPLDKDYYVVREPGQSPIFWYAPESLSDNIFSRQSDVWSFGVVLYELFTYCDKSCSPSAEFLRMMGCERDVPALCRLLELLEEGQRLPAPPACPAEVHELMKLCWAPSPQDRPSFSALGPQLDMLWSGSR
Put plainly: In vitro Jak3 kinase activity measured by time-resolved fluorescence resonance energy transfer (trFRET). The format is biochemical. Conditions: ATP 0.001 mM, Table B. The procedure:
In Vitro Jak3 Kinase Activity Measured by Time-Resolved Fluorescence Resonance Energy Transfer (trFRET)
Varying concentrations of inhibitor were added to an assay well containing: Jak3 enzyme (aa 811-1103; expressed in SF9 cells as a GST fusion and purified by glutathione affinity chromatography; 3 nM), peptide substrate (biotin-TYR2, Sequence: Biotin-(Ahx)-AEEEYFFLFA-amide; 2 μM), MOPSO pH 6.5 (50 mM), MgCl2 (10 mM), MnCl2 (2 mM), DTT (2.5 mM), BSA (0.01% w/v), Na3VO4 (0.1 mM) and ATP (0.001 mM). After about 60 min incubation at rt, the reaction was quenched by addition of EDTA (final concentration: 100 mM) and developed by addition of revelation reagents (final approximate concentrations: 30 mM HEPES pH 7.0, 0.06% BSA, 0.006% Tween-20, 0.24 M KF, 80 ng/mL PT66K (europium labeled anti-phosphotyrosine antibody cat #61T66KLB Cisbio, Bedford, Mass.) and 0.8 μg/mL SAXL (Phycolink streptavidin-allophycocyanin acceptor, cat #PJ52S, Prozyme, San Leandro, Calif.). The developed reaction was incubated in the dark either at about 4° C., for about 14 h or for about 60 min at rt, then read via a time-resolved fluorescence detector (Rubystar, BMG) using a 337 nm laser for excitation and emission wavelength of 665 nm. Within the linear range of the assay, the observed signal at 665 nm is directly related to phosphorylated product and used to calculate the IC50 values.
In the case of `CC[C@@H]1C[C@H](NC(=O)c2noc3c2CC(C)CC3)C[C@@H]1c1nnc2cnc3[nH]ccc3n12` (stereo partly drawn) [compound 29, N-((1S,3R,4S)-3-ethyl-4-(6H-pyrrolo[2,3-e][1,2,4]triazolo[4,3-a]pyrazin-1-yl)cyclopentyl)-5-methyl-4,5,6,7-tetrahydrobenzo[d]isoxazole-3-carboxamide], the IC50 lay within 1 to 10 µM. In the case of `CC[C@@H]1C[C@H](NC(=O)CNC(=O)c2ccc(C)o2)C[C@@H]1c1nnc2cnc3[nH]ccc3n12` [compound 30, N-(2-((1S,3R,4S)-3-ethyl-4-(6H-pyrrolo[2,3-e][1,2,4]triazolo[4,3-a]pyrazin-1-yl)cyclopentylamino)-2-oxoethyl)-5-methylfuran-2-carboxamide] it was 1 to 10 µM; in that of `CC[C@@H]1C[C@H](NC(=O)C(CC2CC2)NC(C)=O)C[C@@H]1c1nnc2cnc3[nH]ccc3n12` (stereo partly drawn) [compound 31, 2-acetamido-3-cyclopropyl-N-((1S,3R,4S)-3-ethyl-4-(6H-pyrrolo[2,3-e][1,2,4]triazolo[4,3-a]pyrazin-1-yl)cyclopentyl)propanamide], greater than 10 µM; in that of `CC[C@@H]1C[C@H](NC(=O)c2coc3ccccc23)C[C@@H]1c1nnc2cnc3[nH]ccc3n12` [compound 32, N-((1S,3R,4S)-3-ethyl-4-(6H-pyrrolo[2,3-e][1,2,4]triazolo[4,3-a]pyrazin-1-yl)cyclopentyl)benzofuran-3-carboxamide], 1 to 10 µM. As for `CC[C@@H]1C[C@H](NC(=O)c2cc3ccc(C)cc3o2)C[C@@H]1c1nnc2cnc3[nH]ccc3n12` [compound 33, N-((1S,3R,4S)-3-ethyl-4-(6H-pyrrolo[2,3-e][1,2,4]triazolo[4,3-a]pyrazin-1-yl)cyclopentyl)-6-methylbenzofuran-2-carboxamide], the figure is 1 to 10 µM; as for `CC[C@@H]1C[C@H](NC(=O)c2conc2C)C[C@@H]1c1nnc2cnc3[nH]ccc3n12` [compound 34, N-((1S,3R,4S)-3-ethyl-4-(6H-pyrrolo[2,3-e][1,2,4]triazolo[4,3-a]pyrazin-1-yl)cyclopentyl)-3-methylisoxazole-4-carboxamide], 1 to 10 µM. As for `CC[C@@H]1C[C@H](NC(=O)c2c(C)oc3c2CCCC3)C[C@@H]1c1nnc2cnc3[nH]ccc3n12` [compound 35, N-((1S,3R,4S)-3-ethyl-4-(6H-pyrrolo[2,3-e][1,2,4]triazolo[4,3-a]pyrazin-1-yl)cyclopentyl)-2-methyl-4,5,6,7-tetrahydrobenzofuran-3-carboxamide], the figure is 1 to 10 µM; as for `CC[C@@H]1C[C@H](NC(=O)CCc2cc(OC)no2)C[C@@H]1c1nnc2cnc3[nH]ccc3n12` [compound 36, N-((1S,3R,4S)-3-ethyl-4-(6H-pyrrolo[2,3-e][1,2,4]triazolo[4,3-a]pyrazin-1-yl)cyclopentyl)-3-(3-methoxyisoxazol-5-yl)propanamide], 1 to 10 µM.

The molecule `CC[C@@H]1C[C@H](NC(=O)CCc2nc(C)no2)C[C@@H]1c1nnc2cnc3[nH]ccc3n12` [compound 37, N-((1S,3R,4S)-3-ethyl-4-(6H-pyrrolo[2,3-e][1,2,4]triazolo[4,3-a]pyrazin-1-yl)cyclopentyl)-3-(3-methyl-1,2,4-oxadiazol-5-yl)propanamide] registered a concentration for half-maximal inhibition (IC50) of 1 to 10 µM. In the case of `CC[C@@H]1C[C@H](NC(=O)CNC(=O)c2cnoc2C)C[C@@H]1c1nnc2cnc3[nH]ccc3n12` [compound 38, N-(2-((1S,3R,4S)-3-ethyl-4-(6H-pyrrolo[2,3-e][1,2,4]triazolo[4,3-a]pyrazin-1-yl)cyclopentylamino)-2-oxoethyl)-5-methylisoxazole-4-carboxamide] it was 1 to 10 µM; in that of `CC[C@@H]1C[C@H](NC(=O)C2=NN=C(c3ccco3)C2)C[C@@H]1c1nnc2cnc3[nH]ccc3n12` [compound 39, N-((1S,3R,4S)-3-ethyl-4-(6H-pyrrolo[2,3-e][1,2,4]triazolo[4,3-a]pyrazin-1-yl)cyclopentyl)-5-(furan-2-yl)-4H-pyrazole-3-carboxamide], less than 1 µM.
